Source: patent publication US7786141B2 (Vertex Pharmaceuticals Incorporated, priority 2004, dated 2010)

Legend:
M4 muscarinic receptor = biological target: T1, M4 muscarinic receptor (Homo sapiens, UniProt P08173); assay: Functional mobilization of intracellular calcium (FLIPR) in M4-CHO cells; type: cell-based; conditions: Table 4; for Emax: 100% efficacy is the maximum response obtained with the Carbachol control; for M4 Activity: M4 receptor, calcium mobilization (FLIPR)
T1 construct: expressed in transfected cells; host or cells: CHO (M4-CHO)
T1 sequence (P08173 1-479): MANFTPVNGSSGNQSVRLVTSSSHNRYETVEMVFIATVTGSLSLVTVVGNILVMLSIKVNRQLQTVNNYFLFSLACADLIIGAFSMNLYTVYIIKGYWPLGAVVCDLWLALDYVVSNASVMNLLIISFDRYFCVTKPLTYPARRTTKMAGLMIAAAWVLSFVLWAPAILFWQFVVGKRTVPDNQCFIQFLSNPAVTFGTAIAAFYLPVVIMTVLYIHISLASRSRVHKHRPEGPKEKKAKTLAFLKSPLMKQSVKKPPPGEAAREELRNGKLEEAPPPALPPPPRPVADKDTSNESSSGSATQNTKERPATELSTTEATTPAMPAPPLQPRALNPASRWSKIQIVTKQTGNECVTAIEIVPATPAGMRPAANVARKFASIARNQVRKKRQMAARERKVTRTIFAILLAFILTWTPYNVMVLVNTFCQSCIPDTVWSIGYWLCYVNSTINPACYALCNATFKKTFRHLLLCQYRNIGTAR
Procedure, shortened: (§1)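 Steps: seed M1- or M4-CHO cells 18-24 hrs ahead; load calcium dye with 1 mM probenecid; add test compound (0.5% DMSO final), either alone for agonism or 15 min before EC80 carbachol for inhibition; record FLIPR fluorescence for 60 sec.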

M1 muscarinic receptor = biological target: T2, M1 muscarinic receptor (Homo sapiens, UniProt P11229); assay: Functional mobilization of intracellular calcium (FLIPR) in M1-CHO cells; type: cell-based; conditions: Table 4; for Emax: 100% efficacy is the maximum response obtained with the Carbachol control; for M1 Activity: M1 receptor, calcium mobilization (FLIPR)
T2 construct: expressed in transfected cells; host or cells: CHO (M1-CHO)
T2 sequence (P11229 1-460): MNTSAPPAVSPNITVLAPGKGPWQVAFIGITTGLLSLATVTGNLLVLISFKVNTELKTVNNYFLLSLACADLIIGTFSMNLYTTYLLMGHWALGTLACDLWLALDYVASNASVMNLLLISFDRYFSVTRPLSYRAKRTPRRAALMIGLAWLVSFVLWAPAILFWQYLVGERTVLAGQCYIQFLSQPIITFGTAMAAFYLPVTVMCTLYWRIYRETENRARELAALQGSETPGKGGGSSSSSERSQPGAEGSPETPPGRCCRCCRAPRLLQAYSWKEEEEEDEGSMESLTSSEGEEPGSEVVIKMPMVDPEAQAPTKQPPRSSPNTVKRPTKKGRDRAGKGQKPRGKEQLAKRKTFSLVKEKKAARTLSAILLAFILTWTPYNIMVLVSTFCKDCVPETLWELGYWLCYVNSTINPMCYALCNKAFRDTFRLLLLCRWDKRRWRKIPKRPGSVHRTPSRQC
Procedure, shortened: as §1

| Structure (SMILES) | Emax (M4 muscarinic receptor) [%] | M4 Activity (M4 muscarinic receptor) | Emax (M1 muscarinic receptor) [%] | M1 Activity (M1 muscarinic receptor) |
| --- | --- | --- | --- | --- |
| CCCN1CC2(CCN(C[C@H]3C[C@H]4C=CC3C4)CC2)c2cc(F)ccc21 [compound 984] | 25 to 100 | xxx (activity was measured to be less than 2.0 μM) | 25 to 100 | xx (activity was measured to be between 2.0 μM and 5.0 μM) |
| CC(=O)NC1CC2(CCN(CC3CC4C=CC3C4)CC2)c2ccc(C)cc21 (stereo not shown) [compound 985] | 25 to 100 | xx (activity was measured to be between 2.0 μM and 5.0 μM) | 25 to 100 | x (activity was measured to be greater than 5.0 μM) |
| CCOC(=O)N1CCCC(N2CCCC3(CC2)CN(C(C)=O)c2ccc(F)cc23)CC1 (stereo not shown) [compound 986] | 25 to 100 | xxx (activity was measured to be less than 2.0 μM) | 25 to 100 | xxx (activity was measured to be less than 2.0 μM) |
| CC(CF)OC(=O)N1CCC(N2CCC3(CC2)CN(C(=O)N(C)C)c2ccc(F)cc23)CC1 (stereo not shown) [compound 987] | 25 to 100 | xxx (activity was measured to be less than 2.0 μM) | 25 to 100 | xxx (activity was measured to be less than 2.0 μM) |
| CN(C)C(=O)N1CC2(CCN(C3CCN(C(=O)c4ccnnc4)CC3)CC2)c2cc(F)ccc21 [compound 988] | 25 to 100 | xxx (activity was measured to be less than 2.0 μM) | 25 to 100 | xxx (activity was measured to be less than 2.0 μM) |
| C#CCCOC(=O)N1CCC(N2CCC3(CC2)CN(C(C)=O)c2ccccc23)CC1 [compound 989] | < 25 | x (activity was measured to be greater than 5.0 μM) | 25 to 100 | xxx (activity was measured to be less than 2.0 μM) |
| COc1ccc(N2CCC(N3CCC4(CC3)CN(C(=O)N(C)C)c3ccc(F)cc34)CC2)cc1 [compound 990] | 25 to 100 | x (activity was measured to be greater than 5.0 μM) | 25 to 100 | xx (activity was measured to be between 2.0 μM and 5.0 μM) |
| CCOC(=O)N1CCC(N2CCC3(CC2)CN(c2ccccc2F)c2ccc(F)cc23)CC1 [compound 991] | 25 to 100 | xxx (activity was measured to be less than 2.0 μM) | 25 to 100 | xxx (activity was measured to be less than 2.0 μM) |
| CCOC(=O)N1CCC(N2CCC3(CC2)CN(C(C)=O)c2c(-c4ccc(F)cc4)cccc23)CC1 [compound 992] | 25 to 100 | x (activity was measured to be greater than 5.0 μM) | 25 to 100 | x (activity was measured to be greater than 5.0 μM) |
| CC(=O)N[C@H]1CCC2(CCN(CC3CCCC3)CC2)c2ccccc21 [compound 993] | 25 to 100 | xxx (activity was measured to be less than 2.0 μM) | 25 to 100 | xxx (activity was measured to be less than 2.0 μM) |
| CCOC(=O)N1CCC(CN2CCC3(CC2)CN(C(C)=O)c2ccc(C(F)(F)F)cc23)CC1 [compound 994] | 25 to 100 | xxx (activity was measured to be less than 2.0 μM) | 25 to 100 | xxx (activity was measured to be less than 2.0 μM) |
| CCOC(=O)N1CCC(N2CCC3(CC2)CN(C(C)=O)c2c(Br)cccc23)CC1 [compound 995] | 25 to 100 | xx (activity was measured to be between 2.0 μM and 5.0 μM) | 25 to 100 | x (activity was measured to be greater than 5.0 μM) |
| CC(=O)N1CC2(CCN(C[C@@H]3CCN(C(=O)OC(C)C)C3)CC2)c2ccccc21 [compound 996] | < 25 | x (activity was measured to be greater than 5.0 μM) | < 25 | x (activity was measured to be greater than 5.0 μM) |
| CN(C)C(=O)NC1CCC2(CCN(CC3CC4C=CC3C4)CC2)c2ccccc21 (stereo not shown) [compound 998] | 25 to 100 | xxx (activity was measured to be less than 2.0 μM) | < 25 | x (activity was measured to be greater than 5.0 μM) |
| CC(=O)NC1CCC2(CCN(CCC3CCN(C(=O)N(C)C)CC3)CC2)c2ccccc21 (stereo not shown) [compound 999] | < 25 | x (activity was measured to be greater than 5.0 μM) | 25 to 100 | xxx (activity was measured to be less than 2.0 μM) |
| CCC(C)C(=O)N1CCC(N2CCC3(CC2)CN(C(C)=O)c2ccccc23)CC1 (stereo not shown) [compound 1000] | 25 to 100 | x (activity was measured to be greater than 5.0 μM) | 25 to 100 | x (activity was measured to be greater than 5.0 μM) |
| COc1cc2c(cc1OC)C1(CCN([C@H]3CC4CC[C@@H]3C4)CC1)C[C@@H]2NC(C)=O [compound 1002] | < 25 | x (activity was measured to be greater than 5.0 μM) | < 25 | x (activity was measured to be greater than 5.0 μM) |
| CCOC(=O)N1CCC(CN2CCCC3(CC2)CN(C(C)=O)c2ccc(F)cc23)CC1 (stereo not shown) [compound 1003] | 25 to 100 | xxx (activity was measured to be less than 2.0 μM) | 25 to 100 | xxx (activity was measured to be less than 2.0 μM) |
| CCOC(=O)N1CCC(N2CCC3(CC2)CN(C(=O)[C@@H](O)CC)c2ccc(F)cc23)CC1 [compound 1004] | 25 to 100 | xxx (activity was measured to be less than 2.0 μM) | 25 to 100 | xxx (activity was measured to be less than 2.0 μM) |
| CN(C)C(=O)N[C@H]1CC2(CCN([C@@H]3CC4CC[C@@H]3C4)CC2)c2ccccc21 [compound 1005] | 25 to 100 | xxx (activity was measured to be less than 2.0 μM) | < 25 | x (activity was measured to be greater than 5.0 μM) |
| CN(C)C(=O)N1CC2(CCN(C3CCN(C(=O)[C@@H]4CCCO4)CC3)CC2)c2cc(F)ccc21 [compound 1006] | < 25 | x (activity was measured to be greater than 5.0 μM) | 25 to 100 | x (activity was measured to be greater than 5.0 μM) |
| CC(=O)CN1CC2(CCN(C3CCCCCC3)CC2)c2cc(F)ccc21 [compound 1009] | 25 to 100 | xxx (activity was measured to be less than 2.0 μM) | 25 to 100 | xxx (activity was measured to be less than 2.0 μM) |
| CN(C)C(=O)NC1CCC2(CCN(CCC3CC4CCC3C4)CC2)c2ccccc21 (stereo not shown) [compound 1010] | < 25 | x (activity was measured to be greater than 5.0 μM) | < 25 | x (activity was measured to be greater than 5.0 μM) |
| COCCOC(=O)N1CCC(N2CCC3(CC2)CN(C(C)=O)c2ccc(F)cc23)C1 (stereo not shown) [compound 1012] | < 25 | x (activity was measured to be greater than 5.0 μM) | < 25 | x (activity was measured to be greater than 5.0 μM) |
| C#CCCOC(=O)N1CC[C@@H](CN2CCC3(CC2)CN(C(C)=O)c2ccccc23)C1 [compound 1013] | < 25 | x (activity was measured to be greater than 5.0 μM) | < 25 | x (activity was measured to be greater than 5.0 μM) |
